The source of these data is article PMC3874184 (Nucleic Acids Research, 2013).

Test [1] deals with T1, scTrm10_84 (Saccharomyces cerevisiae, UniProt Q12400).
T1 sequence (Q12400 84-276): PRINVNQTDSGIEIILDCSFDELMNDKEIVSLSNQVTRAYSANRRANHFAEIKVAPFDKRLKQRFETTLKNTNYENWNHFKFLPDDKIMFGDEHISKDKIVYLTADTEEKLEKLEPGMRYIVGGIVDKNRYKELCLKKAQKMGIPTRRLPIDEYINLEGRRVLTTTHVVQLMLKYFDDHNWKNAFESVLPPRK
In words: X-ray crystal structure, […] Å. The following applies: SAM-binding pocket in C-terminal trefoil knot; 1:3 protein:SAH.

In test [2] the target is T2, spTrm10 (spTrm10_FL) (Schizosaccharomyces pombe, UniProt O14214).
T2 sequence (O14214 1-304): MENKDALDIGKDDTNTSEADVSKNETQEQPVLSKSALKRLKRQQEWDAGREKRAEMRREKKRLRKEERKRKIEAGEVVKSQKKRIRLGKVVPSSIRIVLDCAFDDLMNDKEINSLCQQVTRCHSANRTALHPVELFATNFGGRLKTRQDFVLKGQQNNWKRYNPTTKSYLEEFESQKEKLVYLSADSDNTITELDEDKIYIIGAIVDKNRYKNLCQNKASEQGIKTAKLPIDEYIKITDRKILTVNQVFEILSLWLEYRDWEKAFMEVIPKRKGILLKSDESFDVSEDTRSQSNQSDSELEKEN
Kind of test: X-ray crystal structure, […] Å. Conditions: SAM-binding pocket in C-terminal trefoil knot; 1:3 protein:SAH.

Test [3] deals with T2, spTrm10 (spTrm10_FL). In words: biochemical.
The target of test [4] is spTrm10 (spTrm10_FL) (Schizosaccharomyces pombe, UniProt O14214, N209A). In words: biochemical.
Sequence of spTrm10 (spTrm10_FL) (Schizosaccharomyces pombe, UniProt O14214, N209A) (O14214 whole entry N209A): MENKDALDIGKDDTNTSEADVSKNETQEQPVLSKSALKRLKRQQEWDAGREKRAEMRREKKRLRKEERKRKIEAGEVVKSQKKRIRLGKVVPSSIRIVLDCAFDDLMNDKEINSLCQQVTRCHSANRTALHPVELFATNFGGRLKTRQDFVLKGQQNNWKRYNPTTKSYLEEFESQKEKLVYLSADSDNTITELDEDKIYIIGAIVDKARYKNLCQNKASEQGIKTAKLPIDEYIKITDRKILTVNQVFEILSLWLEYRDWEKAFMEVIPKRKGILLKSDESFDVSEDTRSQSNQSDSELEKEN

As for `Nc1ncnc2c1ncn2[C@@H]1O[C@H](CSCC[C@H](N)C(=O)O)[C@@H](O)[C@H]1O` [SAH], in test [1], the “X-ray crystal structure, 1.76 Å” value worked out at 4JWJ for scTrm10_84-SAH. In addition, in test [2], the “X-ray crystal structure, 2.04 Å” value is listed as 4JWH for spTrm10-FL-SAH.
`C[S+](CC[C@H](N)C(=O)O)C[C@H]1O[C@@H](n2cnc3c(N)ncnc32)[C@H](O)[C@@H]1O` (stereo partly shown) [SAM]: the Kd (commonly a measure of binding affinity in units of concentration) stood at 4.46 µM in test [3] and 83.3 µM in test [4].
